Details: 101.33 kPa, Liquid; for mass density: Vibrating tube method; for viscosity: Concentric cylinders viscometry

CCCCCCn1cc[n+](C)c1.[Cl-] [1-hexyl-3-methylimidazolium chloride]
Details	mass density [kg/m3]	viscosity [mPa·s]
303.15 K	1035.1	–
313.15 K	1029.5	–
323.15 K	1023.9	1806
333.15 K	1018.4	810.3
343.15 K	1012.8	404.3
353.15 K	1007.4	220.6
363.15 K	1002.1	129.7
373.15 K	997.1	81.34

From the NIST ThermoML archive (doi:10.1021/je4007844)
